This is an account of results in patent US11111238B2, “Coumarin derivatives, processes for their preparation and uses thereof for the treatment of cancer” (Lead Discovery Center GmbH, priority 2017, dated 2021).

As a reminder, the IC50 is the concentration at which inhibition is half-maximal. A high value points to weaker potency.

The target of assay [1] is mitochondrial RNA-polymerase (POLRMT) (Mus musculus, UniProt Q8BKF1). The experiment in a line: Homogeneous TR-FRET assay for mitochondrial transcription activity. It counts as biochemical. The settings on record: homogeneous TR-FRET assay according to Example 4; activity class. The procedure, abridged:
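Mouse POLRMT, TFAM and TFB2M with linearized pUC-LSP template in 10 mM Tris-HCl pH 7.5, 10 mM MgCl2, 40 mM NaCl; compounds at 10 μM or serial dilution, 10 min RT preincubation. Started with 500 μM each […], 2 h RT; 407 bp RNA product detected by hybridized Eu-cryptate/ATTO647N probe TR-FRET (ex 340, em 665 nm).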

Assay [2] concerns mitochondrial transcription (7S RNA) in HeLa cells. The experiment in a line: Quantitative real time-PCR assay of inhibition of mitochondrial transcription (cellular qPCR assay IMT). The following applies: Homo sapiens, 4 h compound incubation, qRT-PCR according to Example 5, activity class. It counts as cell-based. As for the experimental part:
Quantitative real-time PCR (qRT-PCR), based on the TagMan™ (Thermo Fisher Scientific, Waltham Mass.) technology, was carried out essentially as described in (Heid et al., 1996). HeLa cells were plated one day before compound treatment in RPMI medium supplemented with 10% Fetal Calf Serum and 2 mM L-glutamine. Cells were incubated with dilution series of compounds or vehicle (DMSO) for 4 h, prior to harvest and extraction of the RNA using the RNeasy Mini Kit (Qiagen, Hilden D), according to the manufacturer's instructions. RNA concentrations were measured spectroscopically, using a NanoDrop-2000 (Thermo Fisher Scientific, Waltham Mass.) and normalized prior to cDNA synthesis, using a ‘High-Capacity cDNA Reverse Transcription Kit’ (Thermo Fisher Scientific, Waltham Mass.). qRT-PCR was carried out using the ‘TaqMan Fast Advance Master Mix’ (Thermo Fisher Scientific, Waltham Mass.) on a 7500 Fast Real-Time PCR machine (Applied Biosystems, Foster City Calif.)
For these measurements, three genes were used to compare the effect of the scrutinized compounds in relation to their concentration. The POLRMT-gene was used to detect potential influences on nuclear transcription. Mitochondrial transcription in vivo was monitored by measurements 7S RNA. The TBP (TATA-box binding protein) gene was employed as the control (housekeeping gene) during qRT-PCR. The short-lived mitochondrial 7S RNA, which is not post-transcriptionally stabilized, allowed us to monitor rapid changes in mitochondrial transcription activity following compound addition. Biological triplicates were analyzed using the comparative CT Method (ΔΔCt) method (Bubner and Baldwin, 2004) and reported as Rq % values (Rq=Relative quantification=2-ΔΔCt).
In general terms: In qPCR the cycle at which signal appears reflects the starting amount.

Sequence of mitochondrial RNA-polymerase (POLRMT) (Q8BKF1 42-1207): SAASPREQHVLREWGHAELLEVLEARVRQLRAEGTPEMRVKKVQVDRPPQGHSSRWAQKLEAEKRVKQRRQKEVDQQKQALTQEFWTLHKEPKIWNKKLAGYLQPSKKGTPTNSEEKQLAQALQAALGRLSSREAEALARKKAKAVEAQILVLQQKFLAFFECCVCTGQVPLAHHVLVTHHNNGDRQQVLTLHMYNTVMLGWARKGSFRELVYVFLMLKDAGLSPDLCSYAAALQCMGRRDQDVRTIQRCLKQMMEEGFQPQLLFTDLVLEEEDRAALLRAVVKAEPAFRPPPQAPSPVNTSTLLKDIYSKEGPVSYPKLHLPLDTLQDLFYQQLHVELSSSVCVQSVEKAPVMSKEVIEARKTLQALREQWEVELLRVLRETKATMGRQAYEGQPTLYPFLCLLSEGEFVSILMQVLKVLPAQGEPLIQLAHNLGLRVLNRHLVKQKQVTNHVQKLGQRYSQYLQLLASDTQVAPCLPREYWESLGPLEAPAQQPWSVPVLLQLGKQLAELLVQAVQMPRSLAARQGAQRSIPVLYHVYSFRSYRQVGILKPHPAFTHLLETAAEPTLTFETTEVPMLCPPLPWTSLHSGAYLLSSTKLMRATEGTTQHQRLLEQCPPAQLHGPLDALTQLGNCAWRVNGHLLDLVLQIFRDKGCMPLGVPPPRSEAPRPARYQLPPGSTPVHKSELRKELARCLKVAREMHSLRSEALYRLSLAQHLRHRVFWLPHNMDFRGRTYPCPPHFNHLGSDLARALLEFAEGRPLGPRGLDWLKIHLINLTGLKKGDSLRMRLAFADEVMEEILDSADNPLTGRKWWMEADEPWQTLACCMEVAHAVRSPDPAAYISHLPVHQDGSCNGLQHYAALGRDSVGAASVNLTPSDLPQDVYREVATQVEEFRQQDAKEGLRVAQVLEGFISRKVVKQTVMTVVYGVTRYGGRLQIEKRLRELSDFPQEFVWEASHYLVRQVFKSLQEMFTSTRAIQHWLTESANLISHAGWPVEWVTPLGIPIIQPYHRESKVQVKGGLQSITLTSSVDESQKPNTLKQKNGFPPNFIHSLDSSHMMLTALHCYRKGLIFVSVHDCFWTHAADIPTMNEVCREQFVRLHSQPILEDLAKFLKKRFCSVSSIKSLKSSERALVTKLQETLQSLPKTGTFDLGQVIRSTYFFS

As to `C[C@@H](Oc1ccc2c(-c3ccc(F)cc3Cl)cc(=O)oc2c1)C(=O)Nc1ccc(C(=O)O)cc1` [Compound 141, 4-[[(2R)-2-[4-(2-chloro-4-fluoro-phenyl)-2-oxo-chromen-7-yl]oxypropanoyl]amino]benzoic acid], the concentration for half-maximal inhibition (IC50) in assay [1] was below 20 nM; in assay [2], 50 to 500 nM.
The corresponding values for `CNC(=O)C1CCCN(C(=O)C(C)Oc2ccc3c(-c4ccccc4C)cc(=O)oc3c2)C1` (stereo not shown) [Compound 21, N-methyl-1-[2-[4-(o-tolyl)-2-oxo-chromen-7-yl]oxypropanoyl]piperidine-3-carboxamide] are below 20 nM and below 10 nM.
Taken in the same sequence, the figures for `CC(C)OC(=O)C[C@H]1CCCN(C(=O)[C@@H](C)Oc2ccc3c(-c4ccc(F)cc4Cl)cc(=O)oc3c2)C1` [Compound 123, isopropyl 2-[(3R)-1-[(2R)-2-[4-(2-chloro-4-fluoro-phenyl)-2-oxo-chromen-7-yl]oxypropanoyl]-3-piperidyl]acetate] were 20 to 100 nM and below 10 nM.
Taken in the same sequence, the figures for `CNC(=O)C1CCCN(C(=O)C(C)Oc2ccc3c(-c4ccccc4Cl)cc(=O)oc3c2)C1` (stereo not shown) [Compound 15, 1-[2-[4-(2-chlorophenyl)-2-oxo-chromen-7-yl]oxypropanoyl]-N-methyl-piperidine-3-carboxamide] were below 20 nM and below 10 nM.
Consider `CC(Oc1ccc2c(-c3ccccc3Cl)cc(=O)oc2c1)C(=O)N1CCC[C@H](C(=O)O)C1` (stereo partly drawn) [Compound 33, (3S)-1-[2-[4-(2-chlorophenyl)-2-oxo-chromen-7-yl]oxypropanoyl]piperidine-3-carboxylic acid], for which the IC50 in assay [1] was below 20 nM; in assay [2], below 10 nM.
Turning to `CC(C)OC(=O)OCOC(=O)[C@H]1CCCN(C(=O)[C@@H](C)Oc2ccc3c(-c4ccc(F)cc4Cl)cc(=O)oc3c2)C1` [Compound 121, (S)-((isopropoxycarbonyl)oxy)methyl 1-((R)-2-((4-(2-chloro-4-fluorophenyl)-2-oxo-2H-chromen-7-yl)oxy)propanoyl)piperidine-3-carboxylate], the half-inhibitory concentration (IC50) in assay [1] was 20 to 100 nM; in assay [2] it was below 10 nM.
The corresponding values for `CCNC(=O)C(C)Oc1ccc2c(-c3ccccc3Cl)cc(=O)oc2c1` (stereo not shown) [Compound 98, 2-[4-(2-chlorophenyl)-2-oxo-chromen-7-yl]oxy-N-ethyl-propanamide] are 100 to 1000 nM and below 10 nM.
Consider `COC(=O)c1ccc(NC(=O)[C@@H](C)Oc2ccc3c(-c4ccc(F)cc4Cl)cc(=O)oc3c2)cn1` [Compound 153, methyl 5-[[(2R)-2-[4-(2-chloro-4-fluoro-phenyl)-2-oxo-chromen-7-yl]oxypropanoyl]amino]pyridine-2-carboxylate], for which the IC50 in assay [1] was in the range of 20 to 100 nM.
Same read-out and setting: then `CCOC(=O)C(C)Oc1ccc2c(-c3c(F)cccc3F)cc(=O)oc2c1` (stereo not shown) [Compound 176, ethyl 2-[4-(2,6-difluorophenyl)-2-oxo-chromen-7-yl]oxypropanoate], with 1000 to 5000 nM; and `Cc1ccccc1-c1cc(=O)oc2cc(OC(C)C(=O)N3CC[C@H](C(=O)O)C3)ccc12` (stereo partly drawn) [Compound 22, (3S)-1-[2-[4-(o-tolyl)-2-oxo-chromen-7-yl]oxypropanoyl]pyrrolidine-3-carboxylic acid], with below 20 nM.
The same measure, in the same setting: the figure for `COC(=O)C[C@H]1CCN(C(=O)[C@@H](C)Oc2ccc3c(-c4ccc(F)cc4Cl)cc(=O)oc3c2)C1` [Compound 142, methyl 2-[(3R)-1-[(2R)-2-[4-(2-chloro-4-fluoro-phenyl)-2-oxo-chromen-7-yl]oxypropanoyl]pyrrolidin-3-yl]acetate] is 20 to 100 nM.
On the same count and under the same terms, the figure for `CC(Oc1ccc2c(-c3cccc(F)c3Cl)cc(=O)oc2c1)C(=O)O` (stereo not shown) [Compound 94, 2-[4-(2-chloro-3-fluoro-phenyl)-2-oxo-chromen-7-yl]oxypropanoic acid] is 20 to 100 nM.
In the case of `COC(=O)C[C@@H]1CCN(C(=O)[C@@H](C)Oc2ccc3c(-c4ccc(F)cc4Cl)cc(=O)oc3c2)C1` [Compound 144, methyl 2-[(3S)-1-[(2R)-2-[4-(2-chloro-4-fluoro-phenyl)-2-oxo-chromen-7-yl]oxypropanoyl]pyrrolidin-3-yl]acetate], the IC50 in assay [1] was 20 to 100 nM.
With `CCOC(=O)CC1CCCN(C(=O)C(C)Oc2ccc3c(-c4ccccc4C)cc(=O)oc3c2)C1` (stereo not shown) [Compound 87, ethyl 2-[1-[2-[4-(o-tolyl)-2-oxo-chromen-7-yl]oxypropanoyl]-3-piperidyl]acetate], the IC50 in assay [1] lay within 20 to 100 nM.
The same measure, in the same setting: the figure for `CC(Oc1ccc2c(-c3cccc(F)c3Cl)cc(=O)oc2c1)C(=O)N1CCCC(S(N)(=O)=O)C1` (stereo not shown) [Compound 52, 1-[2-[4-(2-chloro-3-fluoro-phenyl)-2-oxo-chromen-7-yl]oxypropanoyl]piperidine-3-sulfonamide] is below 20 nM.
On the same count and under the same terms, then `C[C@@H](Oc1ccc2c(-c3c(Cl)cccc3Cl)cc(=O)oc2c1)C(=O)N1CCC[C@H](C(=O)O)C1` [Compound 163, (3S)-1-[(2R)-2-[4-(2,6-dichlorophenyl)-2-oxo-chromen-7-yl]oxypropanoyl]piperidine-3-carboxylic acid], with 100 to 1000 nM; and `C[C@@H](Oc1ccc2c(-c3ccc(F)cc3Cl)cc(=O)oc2c1)C(=O)N1CCC[C@H](C(N)=O)C1` [Compound 132, (3S)-1-[(2R)-2-[4-(2-chloro-4-fluoro-phenyl)-2-oxo-chromen-7-yl]oxypropanoyl]piperidine-3-carboxamide], with below 20 nM.
On the same count and under the same terms, then `C[C@@H](Oc1ccc2c(-c3ccc(F)cc3Cl)cc(=O)oc2c1)C(=O)Nc1ccc(CO)cc1` [Compound 130, (2R)-2-[4-(2-chloro-4-fluoro-phenyl)-2-oxo-chromen-7-yl]oxy-N-[4-(hydroxymethyl)phenyl]propanamide], with below 20 nM.
In assay [1], `Cc1ccccc1-c1cc(=O)oc2cc(OC(C)C(=O)N3CCCC(S(C)(=N)=O)C3)ccc12` (stereo not shown) [Compound 73, 7-[1-methyl-2-[3-(methylsulfonimidoyl)-1-piperidyl]-2-oxo-ethoxy]-4-(o-tolyl)chromen-2-one] yielded an IC50 of 20 to 100 nM.
On the same count and under the same terms, then `CNC(=O)C(C)Oc1ccc2c(-c3ccccc3Cl)cc(=O)oc2c1` (stereo not shown) [Compound 51, 2-[4-(2-chlorophenyl)-2-oxo-chromen-7-yl]oxy-N-methyl-propanamide], with below 20 nM; and `CC(Oc1ccc2c(-c3ccccc3Cl)cc(=O)oc2c1)C(=O)N1CCCC(S(=O)(=O)O)C1` (stereo not shown) [Compound 11, 1-[2-[4-(2-chlorophenyl)-2-oxo-chromen-7-yl]oxypropanoyl]piperidine-3-sulfonic acid], with below 20 nM; and `C[C@@H](Oc1ccc2c(-c3ccc(F)cc3Cl)cc(=O)oc2c1)C(=O)N1CCC[C@H](CC(N)=O)C1` [Compound 133, 2-[(3R)-1-[(2R)-2-[4-(2-chloro-4-fluoro-phenyl)-2-oxo-chromen-7-yl]oxypropanoyl]-3-piperidyl]acetamide], with below 20 nM.
Turning to `C[C@@H](Oc1ccc2c(-c3ccc(F)cc3Cl)cc(=O)oc2c1)C(=O)N1CCC[C@H](C(=O)OCCN2CCOCC2)C1` [Compound 119, 2-morpholinoethyl (3S)-1-[(2R)-2-[4-(2-chloro-4-fluoro-phenyl)-2-oxo-chromen-7-yl]oxypropanoyl]piperidine-3-carboxylate], the IC50 in assay [2] was below 10 nM.
The compound `C[C@@H](Oc1ccc2c(-c3ccc(F)cc3Cl)cc(=O)oc2c1)C(=O)Nc1cncc(C(=O)O)c1` [Compound 148, 5-[[(2R)-2-[4-(2-chloro-4-fluoro-phenyl)-2-oxo-chromen-7-yl]oxypropanoyl]amino]pyridine-3-carboxylic acid] yielded an IC50 in assay [1] below 20 nM.
